Measured values taken from patent US8481738B2, “Gonadotropin-releasing hormone receptor antagonists and methods relating thereto” (Neurocrine Biosciences, Inc., priority 2007, dated 2013).

target: T1, human GnRH receptor (Homo sapiens, UniProt P30968); test: Peptide competition radioligand binding displacement assay, human GnRH receptor membranes; settings: one or more of the peptide competition human receptor binding assays
T1 construct: expressed in transfected cells; host or cells: RBL cells, stably transfected (in general)
T1 sequence (P30968 1-328): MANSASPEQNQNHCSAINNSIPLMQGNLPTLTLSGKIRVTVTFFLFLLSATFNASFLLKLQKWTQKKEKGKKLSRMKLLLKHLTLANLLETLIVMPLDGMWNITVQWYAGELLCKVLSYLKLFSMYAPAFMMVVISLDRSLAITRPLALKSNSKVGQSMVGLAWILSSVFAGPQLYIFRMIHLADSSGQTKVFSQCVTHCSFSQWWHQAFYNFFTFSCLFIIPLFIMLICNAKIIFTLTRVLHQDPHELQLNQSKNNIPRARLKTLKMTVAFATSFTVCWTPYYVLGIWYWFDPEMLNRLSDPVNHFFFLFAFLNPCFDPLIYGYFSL
Method in brief: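 Membranes for radioligand binding were prepared from RBL cells stably expressing human GnRH receptor, which were lysed by nitrogen cavitation at 900 psi, 4° C. Membranes from HEK293 cells stably transfected with human receptor were held in 10 mM HEPES pH 7.5, 150 mM NaCl, 0.1% BSA. Transiently transfected COS-7 cells were used for other species.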

Row | Structure (SMILES) | Ki [µM]
1 | COc1cccc(C)c1N(C)C(=O)c1cc(-c2cnc(C(F)(F)F)cc2C#N)c(Cl)cc1OCCCCO [21-1, 4-Chloro-5-(4-cyano-6-trifluoromethyl-pyridin-3-yl)-2-(4-hydroxy-butoxy)-N-(2-methoxy-6-methyl-phenyl)-N-methyl-benzamide] | ≤ 0.1
2 | COC(=O)CCCOc1cccc(C)c1N(C)C(=O)c1ccc(Cl)c(-c2cnc(Cl)cc2C)c1 [3-5] | ≤ 0.1
3 | COc1ccccc1N(C)C(=O)c1cc(-c2cnc(C(F)(F)F)cc2C#N)c(Cl)cc1OCCN1CCC[C@@H]1C(=O)O [49-2] | ≤ 0.1
4 | COc1ccccc1N(C)C(=O)c1ccc(Cl)c(-n2c(C)cc(C(F)(F)F)nc2=O)c1 [30-15] | ≤ 0.1
5 | COc1ccccc1N(C)C(=O)c1cc(-c2cnc(C(F)(F)F)cc2C#N)c(Cl)cc1OCCNC(=O)C(F)(F)F [47-4] | ≤ 0.1
6 | COc1ccccc1N(C)C(=O)c1cc(-c2cnc(C(F)(F)F)cc2C#N)c(Cl)cc1OCCNS(C)(=O)=O [48-1, 4-Chloro-5-(4-cyano-6-trifluoromethyl-pyridin-3-yl)-2-(2-methanesulfonylamino-ethoxy)-N-(2-methoxy-phenyl)-N-methyl-benzamide] | ≤ 0.1
7 | COc1ccccc1N(C)C(=O)c1ccc(Cl)c(-c2cnc(C(N)=O)cc2C)c1 [24-2, 5-{2-chloro-5-[(2-methoxy-phenyl)-methyl-carbamoyl]-phenyl}-4-methyl-pyridine-2-carboxylic acid amide] | ≤ 0.1
8 | COc1ccc(Cl)cc1N(C)C(=O)c1cc(-c2cnc(C(F)(F)F)cc2C#N)c(Cl)cc1OCCCC(=O)O [34-7] | ≤ 0.1
9 | COc1cc(Cl)c(-c2cnc(C(F)(F)F)cc2C#N)cc1C(=O)N(C)c1ncccc1OC [39-13] | ≤ 0.1
10 | CN(C(=O)c1ccc(Cl)c(-c2cnc(C(F)(F)F)cc2C#N)c1)c1ccccc1OCCC(=O)O [11-4, 3-(2-{[4-chloro-3-(4-cyano-6-trifluoromethyl-pyridin-3-yl)-benzoyl]-methyl-amino}-phenoxy)-propionic acid] | ≤ 0.1
11 | CN(C(=O)c1cc(-c2cnc(C(F)(F)F)cc2C#N)c(Cl)cc1OCCCC(=O)O)c1ccccc1-c1ccco1 [34-16] | ≤ 0.1
12 | COc1cccc(C)c1N(C)C(=O)c1cc(-c2cnc(C(F)(F)F)cc2C#N)c(Cl)cc1OCCCC(=O)O [22-1, 4-{5-Chloro-4-(4-cyano-6-trifluoromethyl-pyridin-3-yl)-2-[(2-methoxy-6-methyl-phenyl)-methyl-carbamoyl]-phenoxy}-butyric acid] | ≤ 0.1
13 | COc1cccc(N(C)C(=O)c2ccc(Cl)c(-c3ncc(Cl)cc3Cl)c2)c1 [19-9] | ≤ 0.1
14 | COc1ccccc1N(C)C(=O)c1cc(-c2cnc(C(F)(F)F)cc2C#N)c(Cl)cc1OCCN [42-16] | ≤ 0.1
15 | COCCN(C)C(=O)c1cc(-c2cnc(C(F)(F)F)cc2C#N)c(Cl)cc1OCCCC(=O)O [34-24] | ≤ 0.1
16 | Cc1cccc(N(C)C(=O)c2ccc(Cl)c(-c3ncc(Cl)cc3Cl)c2)c1C [19-10] | ≤ 0.1
17 | COc1ccccc1N(C)C(=O)c1cc(-c2cnc(C(F)(F)F)cc2C#N)c(Cl)cc1OCCCC(=O)OCOC(=O)C(C)(C)C [36-2, 4-{5-chloro-4-(4-cyano-6-trifluoromethyl-pyridin-3-yl)-2-[(2-methoxy-phenyl)-methyl-carbamoyl]-phenoxy}-butyric acid 2,2-dimethyl-propionyloxymethyl ester] | ≤ 0.1
18 | COc1ccccc1N(C)C(=O)c1cc(-c2cnc(C(F)(F)F)cc2C#N)c(Cl)cc1OCCN(C)C(=O)C(F)(F)F [47-5] | ≤ 0.1
19 | Cc1cc(C#N)ncc1-c1cc(C(=O)N(C)c2cccc(F)c2OCCCC(=O)O)ccc1Cl [4-9] | ≤ 0.1
20 | Cc1cccc(C)c1N(C)C(=O)c1ccc(Cl)c(-c2ncc(Cl)cc2Cl)c1 [19-8] | ≤ 0.1
21 | CN(C(=O)c1cc(-c2cnc(C(F)(F)F)cc2C#N)c(Cl)cc1OCCCC(=O)O)c1ccccc1 [34-8] | ≤ 0.1
22 | Cc1ccccc1N(C)C(=O)c1cc(-c2cnc(C(F)(F)F)cc2C#N)c(Cl)cc1OCCCC(=O)O [20-1, 4-[5-Chloro-4-(4-cyano-6-trifluoromethyl-pyridin-3-yl)-2-(methyl-o-tolyl-carbamoyl)-phenoxy]-butyric acid] | ≤ 0.1
23 | Cc1cc(C(F)(F)F)nc(=O)n1-c1cc(C(=O)N(C)c2cccc(F)c2F)ccc1Cl [30-13] | ≤ 0.1
24 | COc1cc(Cl)c(-c2cnc(C(F)(F)F)cc2C#N)cc1C(=O)N(C)c1c(F)cccc1OC [39-4] | ≤ 0.1

The remaining lines, values ahead:

Row | Ki [µM] | Structure (SMILES)
25 | ≤ 0.1 | COc1cc(Cl)c(-c2cnc(C(F)(F)F)cc2C#N)cc1C(=O)N(C)c1c(C)cccc1OC [39-10]
26 | ≤ 0.1 | COc1cc(C)c(-c2cc(C(=O)N(C)c3c(C)cccc3OC)ccc2Cl)cn1 [2-26]
27 | ≤ 0.1 | Cc1cc(C#N)ncc1-c1cc(C(=O)N(C)c2c(C)cccc2C)c(OCCCCO)cc1Cl [21-5]
28 | ≤ 0.1 | Cc1cc(C#N)ncc1-c1cc(C(=O)N(C)c2c(C)cccc2OCCCO)ccc1Cl [9-5]
29 | ≤ 0.1 | Cc1cc(Cl)c(-c2cc(C(=O)N(C)c3ccccc3F)ccc2Cl)cn1 [2-37]
30 | ≤ 0.1 | Cc1cccc(OCCCC(=O)O)c1N(C)C(=O)c1ccc(Cl)c(-c2nc3ccccc3cc2C#N)c1 [5-4]
31 | ≤ 0.1 | Cc1cc(Cl)ncc1-c1cc(C(=O)N(C)c2ccccc2C)ccc1Cl [2-18]
32 | ≤ 0.1 | COCc1cc(Cl)ccc1N(C)C(=O)c1cc(-c2cnc(C(F)(F)F)cc2C#N)c(Cl)cc1OCCCC(=O)O [34-9]
33 | ≤ 0.1 | COc1cccc(N(C)C(=O)c2cc(-c3cnc(C(F)(F)F)cc3C#N)c(Cl)cc2OCCCC(=O)O)n1 [34-19]
34 | ≤ 0.1 | CN(C(=O)c1ccc(Cl)c(-c2cnc(C(F)(F)F)cc2C#N)c1)c1ccccc1OCCC(=O)NCCN [53-1, N-{2-[2-(2-Amino-ethylcarbamoyl)-ethoxy]-phenyl}-4-chloro-3-(4-cyano-6-trifluoromethyl-pyridin-3-yl)-N-methylbenzamide]
35 | ≤ 0.1 | COc1ccccc1N(C)C(=O)c1cc(-c2cnc(C(F)(F)F)cc2C#N)c(Cl)cc1OCCCc1cn[nH]c1 [42-7]
36 | ≤ 0.1 | COc1ccccc1N(C)C(=O)c1ccc(Cl)c(-c2nc3ccccc3cc2C#N)c1 [2-49]
37 | ≤ 0.1 | Cc1cc(Cl)cnc1-c1cc(C(=O)N(C)c2ccccc2F)ccc1Cl [2-62]
38 | ≤ 0.1 | COc1c(Cl)cccc1N(C)C(=O)c1cc(-c2cnc(C(F)(F)F)cc2C#N)c(Cl)cc1OCCCC(=O)O [34-6]
39 | ≤ 0.1 | COc1ccccc1N(C)C(=O)c1ccc(Cl)c(-c2ccc(Cl)cc2Cl)c1 [2-54]
40 | ≤ 0.1 | CN(C(=O)c1ccc(Cl)c(-c2cnc(C(F)(F)F)cc2C#N)c1)c1ccccc1OCCN1CCC[C@H]1C(=O)O [50-3]
41 | ≤ 0.1 | Cc1ccccc1N(C)C(=O)c1cc(-c2cnc(Cl)cc2Cl)c(Cl)cc1OCCCC(=O)O [20-2]
42 | ≤ 0.1 | COc1ccccc1N(C)C(=O)c1ccc(Cl)c(-c2ncc(C)cc2C)c1 [2-60]
43 | ≤ 0.1 | Cc1cccnc1N(C)C(=O)c1cc(-c2cnc(C(F)(F)F)cc2C#N)c(Cl)cc1OCCCC(=O)O [34-20]
44 | ≤ 0.1 | CCN(C(=O)c1ccc(Cl)c(-c2ncc(Cl)cc2Cl)c1)c1ccccc1OC [17-2]
45 | ≤ 0.1 | CN(C(=O)c1ccc(Cl)c(-c2cnc(C(F)(F)F)cc2C#N)c1)c1ccccc1CCCC(=O)O [14-4]
46 | ≤ 0.1 | Cc1cccc(OCCCC(=O)O)c1N(C)C(=O)c1ccc(Cl)c(-c2cnc(C(F)(F)F)cc2C#N)c1 [4-11]
47 | ≤ 0.1 | COc1ccccc1N(C)C(=O)c1ccc(Cl)c(-c2nc3ccccc3cc2C)c1 [2-79]
